Consider twelve compounds from article PMC6796870, “A two-step lineage reprogramming strategy to generate functionally competent human hepatocytes from fibroblasts” (Cell Research, 2019).

Where a name gives a salt, the structure may show the parent alone. Read-outs that look alike come from different tables or passages of the source.

For series [1] the following is noted: Table S9; ref 1,2 (Chen, M. et al. 2011); cited from earlier work.
The next series relates to HBV. Kind of series: HBV infection of hiHeps, antiviral drug response. Format: cell-based, hepatitis B virus. To be noted: HBV-infected hiHeps; for HBV-DNA / HBV-RNA / HBV-proteins: 36 days, LAM 1 μM, ETV 0.5 μM during and after infection.
The subject of series [2] is hiHeps. The following applies: human.
Series [3] concerns hiHeps. Briefly: Toxicity assay (TC50, 24 h, minimum of four viability parameters) in hiHeps. The following applies: concentration giving 50% reduction of cell viability, values rounded for ease of use.
Another series has as its system IFN-stimulated genes. Briefly: Expression of IFN-stimulated genes in hiHeps. Format: cell-based, human. The following applies: IFN-α treatment.
For series [4], the system named is hiHeps.
The subject of series [5] is hiHeps. Format: cell-based, human. The procedure: The correlation between groups was evaluated by the Pearson correlation coefficient (r). b Time- and dose-dependent chronic toxicity of troglitazone in hiHeps. Mitochondrial activities were normalized to DMSO-treated cultures at corresponding day. n = 6. c Fluorescence evaluation of the pathological effects of DILI in hiHeps. Steatosis (up) and phospholipidosis (down) were evaluated in hiHeps after exposure to steatosis-causing compounds and phospholipidosis-causing compounds, respectively. Rifampin (non-steatosis/phospholipidosis-causing drug) or DMSO treatment were set as controls. For all compounds, images were captured at the concentration of 80% TC50. For all measurements, ‘n’ represents the number of biological replicates. The scale bars represent 50 μm. Data are presented as mean ± SEM

With `CC(=O)O[C@@]12CO[C@@H]1C[C@H](O)[C@@]1(C)C(=O)[C@H](O)C3=C(C)[C@@H](OC(=O)[C@H](O)[C@@H](NC(=O)OC(C)(C)C)c4ccccc4)C[C@@](O)([C@@H](OC(=O)c4ccccc4)[C@H]21)C3(C)C` [Docetaxel], in series [1], the Label entry is “DILI concern by FDA”. For the compound `C=C1[C@H](CO)[C@@H](O)C[C@@H]1n1cnc2c(=O)[nH]c(N)nc21` [entecavir], in the series with HBV, the HBV-DNA result is listed as “greatly inhibited”, the HBV-RNA result is reported as “moderate effect” and the HBV-proteins entry is “moderate effect”. `CN(C)[C@@H]1C(O)=C(C(N)=O)C(=O)[C@@]2(O)C(O)=C3C(=O)c4c(O)cccc4[C@@](C)(O)[C@H]3C[C@@H]12` [tetracycline hydrochloride] showed a TC50 with hiHeps [2] of roughly 400 µM. For the compound `Nc1ccn([C@@H]2CS[C@H](CO)O2)c(=O)n1` [lamivudine], in the series on HBV, the HBV-DNA entry was “greatly inhibited”, the HBV-RNA entry was “moderate effect” and the HBV-proteins entry is “moderate effect”. As for `CCN(CC)CCNC(=O)c1c(C)[nH]c(/C=C2\C(=O)Nc3ccc(F)cc32)c1C` [Sunitinib], in series [1], the Label entry is recorded as “DILI concern by FDA”.

As for `CN(C)CCCN1c2ccccc2Sc2ccc(Cl)cc21` [chlorpromazine], the TC50 result with hiHeps [3] is given as “≈ 25 μM”. Take interferon-alpha: the “Expression of IFN-stimulated genes” value in the series with IFN-stimulated genes is “upregulation”. The “All major HBV markers (HBV-DNA, HBV-RNA, HBV-proteins)” value in the series on HBV (1000 U/mL after infection) was “inhibitory effect”. As for `CO[C@H]1/C=C/O[C@@]2(C)Oc3c(C)c(O)c4c(O)c(c(/C=N/N5CCN(C)CC5)c(O)c4c3C2=O)NC(=O)/C(C)=C\C=C\[C@H](C)[C@H](O)[C@@H](C)[C@@H](O)[C@@H](C)[C@H](OC(C)=O)[C@@H]1C` [rifampin], the TC50 in the series with hiHeps [3] is roughly 100 µM.

As to `CC(C)C(=O)Nc1ccc([N+](=O)[O-])c(C(F)(F)F)c1` [flutamide], the “Toxicity after treatment with CYP3A4 inducer (rifampin)” value in the series with hiHeps [4] was “increased”. Further, in the series on HepG2 cells, the “DDI effects on toxicity (rifampin, rifampin + ketoconazole)” value was “not detected”. Turning to aflatoxin B1, in the series with hiHeps [4], the “Toxicity after rifampin plus CYP3A4 inhibitor (ketoconazole)” value is reported as “rescued” and the “Toxicity after treatment with CYP3A4 inducer (rifampin)” value is reported as “increased”. Also, the “DDI effects on toxicity (rifampin, rifampin + ketoconazole)” value with HepG2 cells is “not detected”. `Cc1c(C)c2c(c(C)c1O)CCC(C)(COc1ccc(CC3SC(=O)NC3=O)cc1)O2` (centres unmarked) [troglitazone]: the Chronic toxicity entry in the series with hiHeps [5] is recorded as “extensive cell death”. `CCCCc1oc2ccccc2c1C(=O)c1cc(I)c(OCCN(CC)CC)c(I)c1` [amiodarone] gave a TC50 with hiHeps [3] of roughly 30 µM.
